# Measurements taken from patent US8394969B2, “Cyclic benzimidazole derivatives useful as anti-diabetic agents” (Merck Sharp & Dohme Corp., priority 2008, dated 2013).
# Molecular target: recombinant human AMPK complex 1 (containing α1β1γ1) (Homo sapiens, UniProt Q13131+Q9Y478)
# Experiment: […] (in vitro AMPK activation assay)
# Format: biochemical
# Settings: not given
# Sequence of recombinant human AMPK complex 1 (containing α1β1γ1) (Q13131 whole entry): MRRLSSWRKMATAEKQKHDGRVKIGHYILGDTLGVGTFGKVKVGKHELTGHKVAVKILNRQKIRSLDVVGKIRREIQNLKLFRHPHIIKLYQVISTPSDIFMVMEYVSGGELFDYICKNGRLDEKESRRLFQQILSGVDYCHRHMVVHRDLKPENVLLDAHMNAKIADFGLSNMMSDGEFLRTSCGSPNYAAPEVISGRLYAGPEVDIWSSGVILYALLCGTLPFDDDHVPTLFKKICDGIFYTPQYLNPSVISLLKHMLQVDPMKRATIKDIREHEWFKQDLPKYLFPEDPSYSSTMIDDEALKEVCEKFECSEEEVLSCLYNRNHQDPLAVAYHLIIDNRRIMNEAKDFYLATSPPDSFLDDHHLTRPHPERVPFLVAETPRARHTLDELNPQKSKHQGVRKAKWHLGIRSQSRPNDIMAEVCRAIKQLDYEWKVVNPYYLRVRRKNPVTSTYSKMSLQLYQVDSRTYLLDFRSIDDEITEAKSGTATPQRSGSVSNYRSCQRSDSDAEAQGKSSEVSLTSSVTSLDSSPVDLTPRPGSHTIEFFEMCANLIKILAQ
# Sequence of recombinant human AMPK complex 1 (containing α1β1γ1) (Q9Y478 whole entry): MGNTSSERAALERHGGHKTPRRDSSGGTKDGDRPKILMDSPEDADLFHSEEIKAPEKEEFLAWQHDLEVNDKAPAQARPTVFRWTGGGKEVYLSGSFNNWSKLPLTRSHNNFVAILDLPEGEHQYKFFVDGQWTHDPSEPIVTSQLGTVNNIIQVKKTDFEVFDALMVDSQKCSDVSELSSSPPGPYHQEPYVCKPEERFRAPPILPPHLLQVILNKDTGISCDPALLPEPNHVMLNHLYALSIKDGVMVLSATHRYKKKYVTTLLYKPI
# Sequence of recombinant human AMPK complex 1 (containing α1β1γ1) (P54619 whole entry partner): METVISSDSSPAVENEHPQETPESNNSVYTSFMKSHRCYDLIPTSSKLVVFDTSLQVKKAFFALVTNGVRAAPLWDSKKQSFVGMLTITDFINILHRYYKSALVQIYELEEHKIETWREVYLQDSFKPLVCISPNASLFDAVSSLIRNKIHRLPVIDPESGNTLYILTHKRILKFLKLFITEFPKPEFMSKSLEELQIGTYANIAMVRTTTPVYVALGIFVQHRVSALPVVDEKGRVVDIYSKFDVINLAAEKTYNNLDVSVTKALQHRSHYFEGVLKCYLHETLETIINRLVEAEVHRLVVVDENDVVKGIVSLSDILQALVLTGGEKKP
row,Compound,% Maximum AMP Activation of human AMPK Complex 1
1,"COc1ccc(-c2cc3nc(Oc4ccc(C)c(C(=O)O)c4)[nH]c3cc2Cl)c(F)c1.N [Example 342, Ammonium 5-{[6-chloro-5-(2-fluoro-4-methoxyphenyl)-1H-benzimidazol-2-yl]oxy}-2-methylbenzoate]",greater than 80%

# Same assay, conditions: read-out: % Maximum AMP Activation of human AMPK Complex 1, recombinant human AMPK complex 1 (α1β1γ1); basal activity subtracted
row,Compound,Emax
1,"Cc1ccc(-c2cc3nc(Oc4ccc(C)c(C(=O)O)c4)[nH]c3cc2Cl)cc1C [Example 340, Ammonium 5-{[6-chloro-5-(3,4-dimethylphenyl)-1H-benzimidazol-2-yl]oxy}-2-methylbenzoate]",> 80%

# Same assay, conditions: recombinant human AMPK complex 1 (α1β1γ1); basal activity subtracted; read-out: % Maximum AMP Activation of human AMPK Complex 1
row,Compound,Emax
1,"O=C(O)CCc1ccc(Oc2nc3cc(-c4ccc(-c5ccccc5)cc4)c(Cl)cc3[nH]2)cc1 [Example 25, 3-[4-(5-Biphenyl-4-yl-6-chloro-1H-benzoimidazol-2-yloxy)-phenyl]-propionic acid]",> 80%
2,"COC(=O)c1cc(Oc2nc3cc(C#Cc4cncn4C)c(Cl)cc3[nH]2)ccc1C [Example 136, 5-[6-Chloro-5-(3-methyl-3H-imidazol-4-ylethynyl)-1H-benzoimidazol-2-yloxy]-2-methyl-benzoic acid methyl ester]",> 80%
3,"Cc1ccc(Oc2nc3cc(-c4ccc5c(c4)N(C)CCN5C)c(Cl)cc3[nH]2)cc1C(=O)O [Example 362, 5-[6-chloro-5-(1,4-dimethyl-1,2,3,4-tetrahydro-quinoxalin-6-yl)-1H-benzoimidazol-2-yloxy]-2-methyl-benzoic acid]",> 80%
4,"Cc1ccc(Oc2nc3cc(C#Cc4ccc(-c5csnn5)cc4)c(Cl)cc3[nH]2)cc1C(=O)O [Example 85, 5-[6-Chloro-5-(4-[1,2,3]thiadiazol-4-yl-phenylethynyl)-1H-benzoimidazol-2-yloxy]-2-methyl-benzoic acid]",> 80%
5,"Cc1ccc(Oc2nc3cc(-c4sc(-c5ccccc5)nc4C)c(Cl)cc3[nH]2)cc1C(=O)O [Example 361, 5-[6-chloro-5-(4-methyl-2-phenyl-thiazol-5-yl)-1H-benzoimidazol-2-yloxy]-2-methyl-benzoic acid]",> 80%
6,"COC(=O)c1cc(Oc2nc3cc(C#Cc4ccc(-c5cnco5)cc4)c(Cl)cc3[nH]2)ccc1C [Example 123, 5-[6-Chloro-5-(4-oxazol-5-yl-phenylethynyl)-1H-benzoimidazol-2-yloxy]-2-methyl-benzoic acid methyl ester]",> 80%
7,"CC(=O)c1ccc(-c2cc3nc(Oc4cc(C)c(C)c(C(=O)O)c4)[nH]c3cc2Cl)cc1 [Example 317, 5-[5-(4-Acetyl-phenyl)-6-chloro-1H-benzoimidazol-2-yloxy]-2,3-dimethyl-benzoic acid]",> 80%
8,"Cc1ccc(Oc2nc3cc(-c4ccc(-c5ccccc5F)cc4)c(Cl)cc3[nH]2)cc1C(=O)O [Example 192, 5-{[6-chloro-5-(2′-fluorobiphenyl-4-yl)-1H-benzimidazol-2-yl]oxy}-2-methylbenzoic acid]",> 80%
9,"COC(=O)c1cc(Oc2nc3cc(C#Cc4ccccc4F)c(Cl)cc3[nH]2)ccc1C [Example 119, 5-[6-Chloro-5-(2-fluoro-phenylethynyl)-1H-benzoimidazol-2-yloxy]-2-methyl-benzoic acid methyl ester]",> 80%
10,"Cc1ccc(Oc2nc3cc(-c4ccc5c(c4)cc(CO)n5C)c(Cl)cc3[nH]2)cc1C(=O)O [Example 274, 5-[6-Chloro-5-(2-hydroxymethyl-1-methyl-1H-indol-5-yl)-1H-benzoimidazol-2-yloxy]-2-methyl-benzoic acid]",> 80%
11,"Cc1ccc(Oc2nc3cc(-c4ccc5c(c4)CCN5C(C)C)c(Cl)cc3[nH]2)cc1C(=O)O [Example 279, 5-[6-Chloro-5-(1-isopropyl-2,3-dihydro-1H-indol-5-yl)-1H-benzoimidazol-2-yloxy]-2-methyl-benzoic acid]",> 80%
12,"Cc1ccc(Oc2nc3cc(-c4ccc(-c5c(C)n[nH]c5C)cc4)c(Cl)cc3[nH]2)cc1C(=O)O [Example 203, 5-({6-chloro-5-[4-(3,5-dimethyl-1H-pyrazol-4-yl)phenyl]-1H-benzimidazol-2-yl}oxy)-2-methylbenzoic acid]",> 80%

# Same assay, conditions: recombinant human AMPK complex 1 (α1β1γ1); read-out: EC50
row,Compound,EC50
1,Cc1ccc(Oc2nc3cc(-c4ccc(-c5ccncc5)cc4)c(Cl)cc3[nH]2)cc1C(=O)O [Example 168],5 nM
2,"Cc1ccc(Oc2nc3cc(-c4ccc5c(ccn5C)c4)c(Cl)cc3[nH]2)cc1C(=O)O [Example 229, 5-{[6-chloro-5-(1-methyl-1H-indol-5-yl)-1H-benzimidazol-2-yl]oxy}-2-methylbenzoic acid]",3 nM

# Tested on: ob/ob and db/db mice
# Experiment: not given
# Settings: following 8 weeks of administration; cited from earlier work
row,Compound,blood glucose reduction
1,NC(=O)c1ncn([C@@H]2O[C@H](CO)[C@@H](O)[C@H]2O)c1N [AICAR],35%
